Measurements published in patent publication US6001852A (priority 1996, dated 1999).

What was measured:
zinc precipitated Aβ = assay: Washing of zinc-aggregated synthetic Aβ on nylon membrane (anti Aβ mAb 6E10, ECL-film); format: biochemical; settings: 2 μM in TBS, 200 μl wash; 10 ng Aβ aggregated with 25 μM ZnCl; 100% for TBS alone
Method: Samples of 10 ng synthetic Aβ were placed in microtitre wells and caused to aggregate by the addition of 25 μM ZnCl. The aggregates were then transferred to a 0.2 μm nylon membrane by filtration. […] The membrane was fixed, probed with the anti Aβ monoclonal antibody 6E10 and developed for exposure to ECL-film. The transmittance of the ECL-film was measured and the relative signal strength calculated based on 100% for TBS alone.

Aβ = assay: Solubilization of Aβ from Alzheimer's disease brain homogenates (Western blot, mAb W02); format: biochemical, human; settings: frontal lobe neocortex homogenized in clioquinol/PBS at 100%, 10% and 1% (100%=800 nM)
Method: Brain specimens were obtained for which a histopathological diagnosis of Alzheimer's disease was confirmed.
The homogenates were centrifuged at 150,000 xg for thirty minutes and the supernatants collected and held on ice (fraction "S"). The pellets were subjected to an identical homogenization and centrifugation regime and the resulting supernatants again collected (fraction "P")
1 ml of each supernatant was treated with 200 μl of ice cold 10% TCA to precipitate total protein including Aβ. The resulting pellet was washed once with 100% ethanol and resuspended in 100 μl of TBS (tris 20 mM, NaCl 150 mM, pH 7.4).
7.5 μl of sample (S or P) was boiled for 5 min. with an equal volume of tris-tricine sample buffer containing 4% SDS and loaded onto a Novex pre-cast 10-20% tris-tricine gel followed by Western transfer onto nitrocellulose. […] The sensitivity of the detection system is 5-10 pg.
To validate the TCA precipitation for Aβ 1 μg of synthetic Aβ 1-40 was added to 1 ml of PBS containing 10% BSA and the solution was treated as above.

zinc-aggregated Aβ = assay: Resolubilization of zinc-aggregated Aβ in TBS pH 7.4; format: biochemical; settings: clioquinol added after 30 μM zinc (43% in solution with zinc alone, 95% before zinc)
Method: The ability of clioquinol to resolubilize zinc-aggregated Aβ was assessed. A […] solution of Aβ in TBS at a pH of 7.4 was prepared. 95% of the Aβ was maintained in a soluble state.

[1] = Dissolution of clioquinol in n-decane and extraction into PBS pH 7.4; format: physicochemical
Method: The resolubilization of amyloid aggregates by clioquinol was studied. […] The undissolved aterial was allowed to settle. […] 100 ml of the (light yellow) supernatant was agitated together with 100 ml of PBS pH 7.4 and the phases allowed to separate. The PBS (lower phase) was collected and filtered to remove the residue which formed at the phase interface upon extraction with the organic solvent.

[2] = 1H NMR study of the interaction of vitamin B12 with clioquinol glucuronide; format: binding; settings: 2.6 mM vitamin B12 and 10 mM clioquinol glucuronide, buffered water pH 6.5, 20° C.
Method: Three different solutions were prepared and their ^1 H NMR spectra were recorded in a DRX 400 MHz spectrophotometer at 20° C. Solution a) contained free vitamin B12 (hydroxycobalamin) in a concentration of 2.6 mM.
In FIG. 1 the spectra of the three solutions are presented for the aromatic region (5.5-9.8 ppm). The differences are quite small but obvious in the expansion shown of FIG. 2 and FIG. 3, respectively.

SMILES: O=C(O)CN(CCN(CC(=O)O)CC(=O)O)CC(=O)O [EDTA]
- Relative signal strength (Aβ remaining on membrane) (zinc precipitated Aβ): 66%

SMILES: Oc1c(I)cc(Cl)c2cccnc12 [clioquinol, 5-chloro-7-iodo-8 hydroxyquinoline]
- Solubilization of Aβ (Aβ): effective in promoting the solubilization of Aβ
- Soluble Aβ (zinc-aggregated Aβ): 70%
- Share of clioquinol dissolved in n-decane ([1]; 5.3 g suspended in 200 ml n-decane): 2%
- Concentration of clioquinol in the PBS ([1]; PBS pH 7.4 extract of decane supernatant, 1:1, assuming 2% dissolved and partitioning coefficient 1/1750): 800 nM

SMILES: COC(=O)[C@H]1OC(Oc2c(I)cc(Cl)c3cccnc23)[C@H](OC(C)=O)[C@@H](OC(C)=O)[C@@H]1OC(C)=O (stereo partly drawn) [methyl (5-chloro-7-iodo-quinolyl-2',3',4'-tri-o-acetyl-glucopyranosid)uronate]
- Interaction with vitamin B12 (shifted 1H NMR resonances) [2]: interaction between clioquinol glucuronide and vitamin B12
